Laboratory results reported in patent US5374722A, “Bridged benzazepines” (Schering Corporation, priority 1993, dated 1994).
Counter-ions that a name gives are not always drawn. Like-named read-outs stand apart in the source and are kept apart here.

Tests used:
D-1 receptor = molecular target: T1, D-1 receptor (Rattus norvegicus, UniProt P18901); assay: Competitive inhibition assay: displacement of tritiated Compound B* (D-1) from rat striatal tissue; assay type: binding, rat (male Sprague-Dawley)
T1 construct: Stdatal tissue is excised, pooled, and homogenized; from tissue; host or cells: striatum of male Sprague-Dawley rats (washed homogenate pellet)

D-2 receptor = molecular target: T2, D-2 receptor (Rattus norvegicus, UniProt P61169); assay: Competitive inhibition assay: displacement of 3H-spiperone (D-2) from rat striatal tissue; assay type: binding, rat (male Sprague-Dawley)
T2 construct: Stdatal tissue is excised, pooled, and homogenized; from tissue; host or cells: striatum of male Sprague-Dawley rats (washed homogenate pellet)

[1] = system: conditioned avoidance response (CAR) in rats; assay: animal or person; assay type: in vivo; conditions: Rattus norvegicus
[2] = 3H-spiperone 0.2 nM, rat striatal tissue, pH 7.4, 37° C., 15 min
[3] = po, 1 h, read-out: Rat CAR MED Oral (minimal effective dose)
[4] = tritiated compound B 0.3 nM, rat striatal tissue, pH 7.4, 37° C., 15 min
[5] = sc, 0.5 h, read-out: Rat CAR MED sc (minimal effective dose)

T1 sequence (P18901 whole entry): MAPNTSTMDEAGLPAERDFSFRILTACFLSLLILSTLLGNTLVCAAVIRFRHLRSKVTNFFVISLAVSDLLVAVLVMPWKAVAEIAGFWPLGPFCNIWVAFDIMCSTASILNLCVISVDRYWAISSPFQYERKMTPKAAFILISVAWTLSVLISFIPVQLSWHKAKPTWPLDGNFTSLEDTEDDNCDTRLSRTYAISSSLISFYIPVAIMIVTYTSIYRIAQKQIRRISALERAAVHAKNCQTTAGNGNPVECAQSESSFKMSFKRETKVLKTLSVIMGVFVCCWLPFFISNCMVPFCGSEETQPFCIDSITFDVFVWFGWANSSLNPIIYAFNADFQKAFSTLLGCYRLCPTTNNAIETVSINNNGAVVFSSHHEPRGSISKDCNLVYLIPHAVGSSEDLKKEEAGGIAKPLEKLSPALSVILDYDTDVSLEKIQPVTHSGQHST
T2 sequence (P61169 whole entry): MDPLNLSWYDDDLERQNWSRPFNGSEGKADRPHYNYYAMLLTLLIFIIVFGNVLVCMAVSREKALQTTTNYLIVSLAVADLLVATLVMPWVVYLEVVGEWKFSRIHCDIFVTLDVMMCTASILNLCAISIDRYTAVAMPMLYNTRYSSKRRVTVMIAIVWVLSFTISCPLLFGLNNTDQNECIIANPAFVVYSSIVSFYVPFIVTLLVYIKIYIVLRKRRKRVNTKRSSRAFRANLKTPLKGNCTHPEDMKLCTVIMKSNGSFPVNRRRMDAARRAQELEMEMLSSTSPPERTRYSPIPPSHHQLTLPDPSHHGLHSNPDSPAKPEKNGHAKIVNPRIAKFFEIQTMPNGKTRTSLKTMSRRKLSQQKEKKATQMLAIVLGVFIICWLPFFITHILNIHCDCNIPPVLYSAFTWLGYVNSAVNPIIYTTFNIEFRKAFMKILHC

SMILES | Ki (D-1 receptor) [nM] | Ki (D-2 receptor; [2]) [nM] | minimal effective dose [1, 3] [mg/kg] | Ki (D-1 receptor; [4]) [nM] | minimal effective dose [1, 5] [mg/kg] | Ki (D-2 receptor) [nM]
Cc1cc2c3c(c1O)CCCC3CN(C)CC2 (stereo not shown) [CH3 H 1 H H H H H, 2,6-Dimethyl-1,2,3,4,8,9,1 0,10a-Octahydro-Naphth[1,8. cd]azepine-7-ol, hydrochloride] | 37 | 1300 | ≤ 30 |  |  | 
CN1CCc2ccc(O)c3c2C(CCC3)C1 (stereo not shown) [CH H 1 H H H H H, 2-Methyl-1,2,3,4,8,9, 10,10a-OctahydroNaphth[1,8-cd]azepine-7-ol] |  | 3350 |  | 350 |  | 
CN1CCc2c(Cl)c(Cl)c(O)c3c2C(CCC3)C1 (stereo not shown) [Cl Cl 1 H H H H H, 5,6-Dichloro-2-Methyl-1,2,3,4,8,9, 10,10a-octahydronapth[1,8-cd]azepin-7-ol] | 1.1 | 230 | 10 |  |  | 
CN1CCc2cc(Cl)c(O)c3c2C(C1)CC3(C)C (stereo not shown) [Cl H 0 H CH3 CH3 H H] | 65 | 147 |  |  | 3 | 
COc1cc(NC(=O)Oc2c(Cl)cc3c4c2CCCC4CN(C)CC3)cc(OC)c1 (stereo not shown) [Cl H 1 3,5-(MeO)2PhNHCO H H H H] | 6.6 |  | 10 |  |  | 405
CC(C)c1ccc(NC(=O)Oc2c(Cl)cc3c4c2CCCC4CN(C)CC3)cc1 (stereo not shown) [Cl H 1 4-i-PrPhNHCO H H H H, 6-Chloro-7-[(4-Isoporpylphenylamino) Carbonyloxy]-2-Methyl-1,2,3,4,8,9,10,10a-Octahydro-Naphth]1,8-cd]azepine, hydrochloride] | 51 |  | ≤ 30 |  |  | 680
CN1CCc2cc(Cl)c(O)c3c2C(CCC3c2ccccc2)C1 (stereo not shown) [Cl H 1 H C6H5 H H H] |  | 42800 | > 30 | 2080 | > 10 | 
CN1CCc2cc(Cl)c(O)c3c2C(CCC3(C)C)C1 (stereo not shown) [Cl H 1 H CH3 CH3 H H, 6-Chloro-2,8.8-Trimethyl-1,2,3,4,8,9,10,10a-Octahydro-Naphth [1,8-cd]azepin-7-ol] |  | 218 | < 30 | 256 | > 10 | 
CC1CCC2CN(C)CCc3cc(Cl)c(O)c1c32 (stereo not shown) [Cl H 1 H CH3 H H H, 6-chloro-2,8-dimethyl-1.2.3.4.8.9.10.10a-octahydro-naphth [1.8-c.d]azepin-7-ol] | 42 | 248 | 3 |  | 0.1 | 
CC1=Cc2c(O)c(Cl)cc3c2C(C1)CN(C)CC3 (stereo not shown) [Cl H 1 H H -- CH3 --] | 32 | 264 | > 30 |  |  | 
CC1CCC2CN(C)CCc3cc(Cl)c(O)c1c32 (stereo not shown) [Cl H 1 H H CH3 H H, 6-chloro-2,8-dimethyl-1.2.3.4.8.9.10.10a-octahydro-naphth [1.8-c.d]azepin-7-ol] | 51 | 389 |  |  |  | 
CC1Cc2c(O)c(Cl)cc3c2C(C1)CN(C)CC3 (stereo not shown) [Cl H 1 H H H CH3 H] | 4.5 | 250 |  |  |  | 
CN1CCc2cc(Cl)c(O)c3c2C(CCC3)C1 (stereo not shown) [Cl H 1 H H H H H, 6-Chloro-2-Methyl-1,2,3,4,8,9, 10, 10a-octahydro-naphth [1,8-cd]azepin-7-ol] | 6.2 | 500 | > 30 |  | 0.3 | 
CN1CCc2cc(Cl)c(O)c3c2C(CCC3O)C1 (stereo not shown) [Cl H 1 H HO H H H] |  | 6590 |  | 110 |  | 
CN1CCc2cc(Cl)c(OC(=O)N(C)C)c3c2C(CCC3)C1 (stereo not shown) [Cl H 1 Me2NCO H H H H] | 1010 |  | 10 |  | 3 | 8010
COc1cc(NC(=O)Oc2ccc3c4c2C(C)CCC4CN(C)CC3)cc(OC)c1 (stereo not shown) [H H 1 3,5-(MeO)2PhNHCO CH3 H H H] | 35 |  | > 30 |  |  | 337
CC(C)c1ccc(NC(=O)Oc2ccc3c4c2C(C)CCC4CN(C)CC3)cc1 (stereo not shown) [H H 1 4-iPrPhNHCO CH3 H H H] | 134 |  | > 30 |  |  | 420
